Measurements: patent publication US8455688B2, “HDAC inhibitors” (Lixte Biotechnology, Inc., priority 2007, dated 2013)
Values after ≈ are worked out from the molar mass of the structure shown. Read-outs that look alike come from different tables or passages of the source. Blank lines part the entries; values can stand above or below the molecule they belong to.

How the values were obtained:
[1] = test system: A. fumigatus; test: Broth dilution antifungal susceptibility testing, A. fumigatus; format: cell-based, Aspergillus fumigatus; settings: Aspergillus fumigatus, 80% inhibition, read-out: minimum inhibitory concentration (MIC)
Experimental: (§1) A total of 23 isolates were tested to include 3 Candida albicans, 3 Candida glabrata, 3 Cryptococcus neoformans, 3 Aspergillus fumigatus, 3 Rhizopus oryzae, 3, Fusarium solani, 3 Pseudallescheria boydii, and 2 […]. All isolates were clinical isolates submitted to the Fungus Testing Laboratory for evaluation. Antifungal susceptibility testing was accomplished according to the methods outlined in the National Committee for Clinical Laboratory Standards, M-27A2, Reference Method for Broth Dilution Antifungal Susceptibility Testing of Yeasts; Approved Standard, and M38-A “Reference Method for Broth Dilution Antifungal Susceptibility Testing of Conidium-Forming Filamentous Fungi; Approved Standard”. This includes testing in RPMI-1640 with glutamine and without bicarbonate, an inoculum size of 0.5-2.5×10^3 for yeasts or […] for moulds, and incubation at 35° C. for 24 and 48 hours. […] Drug concentrations were 0.125-64 μg/ml. A 10 mg portion of each powder was weighed out and added to 1 ml of 100% DMSO for compound 205. The resulting concentration of […] was diluted to a working concentration of 6400 μg/ml for compound 205 in 100% DMSO. All subsequent dilutions were also made using the respective diluents. Final testing concentrations ranged from 0.125-64 μg/ml. The NCCLS recommended medium RPMI-1640 (Hardy Diagnostics, Santa Monica, Calif.) was utilized as the test medium. All isolates in this study were clinical isolates received in the Fungus Testing Laboratory for standard antifungal susceptibility testing and/or identification. Isolates, which were not sent for identification, were confirmed to assure testing integrity. A total of 23 were tested to include 3 Candida albicans, 3 Candida glabrata, 3 Cryptococcus neoformans, 3 Aspergillus fumigatus, 3 Rhizopus oryzae, 3, Fusarium solani, 3 Pseudallescheria boydii, and 2 […]. Minimum inhibitory concentrations (MIC) were determined at the first 24-hour interval where growth could be determined in the drug-free control tube.

[2] = test system: T. rubrum; test: Broth dilution antifungal susceptibility testing, T. rubrum; format: cell-based, Trichophyton rubrum; settings: Trichophyton rubrum, 80% inhibition, read-out: minimum inhibitory concentration (MIC)
Experimental: as §1

[3] = test system: F. solani; test: Broth dilution antifungal susceptibility testing, F. solani; format: cell-based; settings: Fusarium solani, 80% inhibition, read-out: minimum inhibitory concentration (MIC)
Experimental: as §1

[4] = test system: C. glabrata; test: Broth dilution antifungal susceptibility testing, C. glabrata; format: cell-based, Candida glabrata; settings: Nakaseomyces glabratus, 50% reduction in turbidity, read-out: minimum inhibitory concentration (MIC)
Experimental: as §1

[5] = test system: S. apiospermum; test: Broth dilution antifungal susceptibility testing, S. apiospermum; format: cell-based, Pseudallescheria boydii; settings: Scedosporium apiospermum, 80% inhibition, read-out: minimum inhibitory concentration (MIC)
Experimental: as §1

[6] = test system: R. arrhizus; test: Broth dilution antifungal susceptibility testing, R. arrhizus; format: cell-based, Rhizopus oryzae; settings: Rhizopus arrhizus, 80% inhibition, read-out: minimum inhibitory concentration (MIC)
Experimental: as §1

[7] = test system: C. neoformans; test: Broth dilution antifungal susceptibility testing, C. neoformans; format: cell-based; settings: Cryptococcus neoformans, 50% reduction in turbidity, read-out: minimum inhibitory concentration (MIC)
Experimental: as §1

[8] = test system: C. albicans; test: Broth dilution antifungal susceptibility testing, C. albicans; format: cell-based, Candida albicans; settings: Candida albicans, 50% reduction in turbidity, read-out: minimum inhibitory concentration (MIC)
Experimental: as §1

[9] = 24 h, isolate 06-4126, 24 hours
[10] = 24 h, isolate 07-2039, 24 hours
[11] = 48 h, isolate 06-4126, 48 hours
[12] = 48 h, isolate 07-2039, 48 hours
[13] = 24 h, isolate 07-1743, 24 hours
[14] = 24 h, isolate 07-2055, 24 hours
[15] = 48 h, isolate 07-1743, 48 hours
[16] = 48 h, isolate 07-2055, 48 hours
[17] = 24 h, isolate 07-1399, 24 hours
[18] = 24 h, isolate 07-1755, 24 hours
[19] = 24 h, isolate 07-1867, 24 hours
[20] = 48 h, isolate 07-1399, 48 hours
[21] = 48 h, isolate 07-1755, 48 hours
[22] = 48 h, isolate 07-1867, 48 hours
[23] = 24 h, isolate 07-2964, 24 hours
[24] = 24 h, isolate 07-2965, 24 hours
[25] = 24 h, isolate 07-3013, 24 hours
[26] = 48 h, isolate 07-2964, 48 hours
[27] = 48 h, isolate 07-2965, 48 hours
[28] = 48 h, isolate 07-3013, 48 hours
[29] = 24 h, isolate 07-1333, 24 hours
[30] = 24 h, isolate 07-1502, 24 hours
[31] = 24 h, isolate 07-1601, 24 hours
[32] = 48 h, isolate 07-1333, 48 hours
[33] = 48 h, isolate 07-1502, 48 hours
[34] = 48 h, isolate 07-1601, 48 hours
[35] = 24 h, isolate 07-1870, 24 hours
[36] = 24 h, isolate 07-2044, 24 hours
[37] = 24 h, isolate 07-2078, 24 hours
[38] = 48 h, isolate 07-1870, 48 hours
[39] = 48 h, isolate 07-2044, 48 hours
[40] = 48 h, isolate 07-2078, 48 hours
[41] = 24 h, isolate 07-2665, 24 hours
[42] = 24 h, isolate 07-2737, 24 hours
[43] = 24 h, isolate 07-2829, 24 hours
[44] = 48 h, isolate 07-2665, 48 hours
[45] = 48 h, isolate 07-2737, 48 hours
[46] = 48 h, isolate 07-2829, 48 hours
[47] = 24 h, isolate 07-3006, 24 hours
[48] = 24 h, isolate 07-3011, 24 hours
[49] = 24 h, isolate 07-3012, 24 hours
[50] = 48 h, isolate 07-3006, 48 hours
[51] = 48 h, isolate 07-3011, 48 hours
[52] = 48 h, isolate 07-3012, 48 hours

MIC ([1]; 24 h, isolate 05-388, 24 hours): 2 µg/mL (≈ 5.31 µM)
MIC [1, 9]: 2 µg/mL (≈ 5.31 µM)
MIC [1, 10]: 2 µg/mL (≈ 5.31 µM)
MIC ([1]; 48 h, isolate 05-388, 48 hours): > 64 µg/mL
MIC [1, 11]: > 64 µg/mL
MIC [1, 12]: > 64 µg/mL
MIC [2, 13]: 0.25 µg/mL (≈ 0.663 µM)
MIC [2, 14]: 0.25 µg/mL (≈ 0.663 µM)
MIC [2, 15]: 0.5 µg/mL (≈ 1.33 µM)
MIC [2, 16]: 0.5 µg/mL (≈ 1.33 µM)
MIC [3, 17]: 1 µg/mL (≈ 2.65 µM)
MIC [3, 18]: 1 µg/mL (≈ 2.65 µM)
MIC [3, 19]: 2 µg/mL (≈ 5.31 µM)
MIC [3, 20]: > 64 µg/mL
MIC [3, 21]: > 64 µg/mL
MIC [3, 22]: > 64 µg/mL
MIC [4, 23]: > 64 µg/mL
MIC [4, 24]: > 64 µg/mL
MIC [4, 25]: > 64 µg/mL
MIC [4, 26]: > 64 µg/mL
MIC [4, 27]: > 64 µg/mL
MIC [4, 28]: > 64 µg/mL
MIC [5, 29]: 1 µg/mL (≈ 2.65 µM)
MIC [5, 30]: 1 µg/mL (≈ 2.65 µM)
MIC [5, 31]: 1 µg/mL (≈ 2.65 µM)
MIC [5, 32]: > 64 µg/mL
MIC [5, 33]: > 64 µg/mL
MIC [5, 34]: > 64 µg/mL
MIC [6, 35]: 4 µg/mL (≈ 10.6 µM)
MIC [6, 36]: 4 µg/mL (≈ 10.6 µM)
MIC [6, 37]: > 64 µg/mL
MIC [6, 38]: > 64 µg/mL
MIC [6, 39]: > 64 µg/mL
MIC [6, 40]: > 64 µg/mL
MIC [7, 41]: > 64 µg/mL
MIC [7, 42]: > 64 µg/mL
MIC [7, 43]: > 64 µg/mL
MIC [7, 44]: > 64 µg/mL
MIC [7, 45]: > 64 µg/mL
MIC [7, 46]: > 64 µg/mL
MIC [8, 47]: > 64 µg/mL
MIC [8, 48]: > 64 µg/mL
MIC [8, 49]: > 64 µg/mL
MIC [8, 50]: > 64 µg/mL
MIC [8, 51]: > 64 µg/mL
MIC [8, 52]: > 64 µg/mL
Compound: O=C(CCCCCNC(=O)c1cc(Cl)ccc1S)Nc1ccccc1 [Compound 210]

MIC ([1]; 24 h, isolate 05-388, 24 hours): 2 µg/mL (≈ 5.37 µM)
MIC [1, 9]: 2 µg/mL (≈ 5.37 µM)
MIC [1, 10]: 2 µg/mL (≈ 5.37 µM)
MIC ([1]; 48 h, isolate 05-388, 48 hours): > 64 µg/mL
MIC [1, 11]: > 64 µg/mL
MIC [1, 12]: > 64 µg/mL
MIC [2, 13]: ≤ 0.125 µg/mL
MIC [2, 14]: ≤ 0.125 µg/mL
MIC [2, 15]: ≤ 0.125 µg/mL
MIC [2, 16]: ≤ 0.125 µg/mL
MIC [3, 17]: 4 µg/mL (≈ 10.7 µM)
MIC [3, 18]: 4 µg/mL (≈ 10.7 µM)
MIC [3, 19]: 2 µg/mL (≈ 5.37 µM)
MIC [3, 20]: 8 µg/mL (≈ 21.5 µM)
MIC [3, 21]: 8 µg/mL (≈ 21.5 µM)
MIC [3, 22]: 8 µg/mL (≈ 21.5 µM)
MIC [4, 23]: > 64 µg/mL
MIC [4, 24]: > 64 µg/mL
MIC [4, 25]: > 64 µg/mL
MIC [4, 26]: > 64 µg/mL
MIC [4, 27]: > 64 µg/mL
MIC [4, 28]: > 64 µg/mL
MIC [5, 29]: 2 µg/mL (≈ 5.37 µM)
MIC [5, 30]: 2 µg/mL (≈ 5.37 µM)
MIC [5, 31]: 2 µg/mL (≈ 5.37 µM)
MIC [5, 32]: 4 µg/mL (≈ 10.7 µM)
MIC [5, 33]: 4 µg/mL (≈ 10.7 µM)
MIC [5, 34]: 4 µg/mL (≈ 10.7 µM)
MIC [6, 35]: 4 µg/mL (≈ 10.7 µM)
MIC [6, 36]: 4 µg/mL (≈ 10.7 µM)
MIC [6, 37]: 8 µg/mL (≈ 21.5 µM)
MIC [6, 38]: > 64 µg/mL
MIC [6, 39]: > 64 µg/mL
MIC [6, 40]: > 64 µg/mL
MIC [7, 41]: 8 µg/mL (≈ 21.5 µM)
MIC [7, 42]: 8 µg/mL (≈ 21.5 µM)
MIC [7, 43]: 8 µg/mL (≈ 21.5 µM)
MIC [7, 44]: 16 µg/mL (≈ 43 µM)
MIC [7, 45]: 16 µg/mL (≈ 43 µM)
MIC [7, 46]: 16 µg/mL (≈ 43 µM)
MIC [8, 47]: > 64 µg/mL
MIC [8, 48]: > 64 µg/mL
MIC [8, 49]: > 64 µg/mL
MIC [8, 50]: > 64 µg/mL
MIC [8, 51]: > 64 µg/mL
MIC [8, 52]: > 64 µg/mL
Compound: COc1ccc(S)c(C(=O)NCCCCCC(=O)Nc2ccccc2)c1 [Compound 211]
